Our source for the IC50 values is PubChem BioAssay AID2305 (GlaxoSmithKline (GSK), 2010).

SMILES strings stand for the structures.

The assay deals with P. falciparum 3D7 growth, pLDH absorbance. In words: blood-stage malaria parasite growth potency – strain 3D7, dose response (AID 2305).
In the case of `COc1cc(NC(=O)c2cccc([N+](=O)[O-])c2)cc(S(=O)(=O)c2ccc(Cl)cc2)c1`, the IC50 (in general, the concentration at which inhibition is half-maximal) was found to be 1130 nM.

As to `N#Cc1cccc(Nc2nccc(NCC(O)c3cccc(C(F)(F)F)c3)n2)c1` (stereo unspecified), the IC50 came to 550 nM.

Consider `c1ccc2[nH]c(-c3ccc(-c4ccc(CN5CCN(c6ccncc6)CC5)cc4)s3)nc2c1`, for which the half-inhibitory concentration (IC50) was determined as 200 nM. Against the preceding molecule, the IC50 is about 2.8-fold lower.

In the case of `COc1ccc(Cl)cc1NC(=O)Nc1cc(C)nc2ccccc12`, the concentration for half-maximal inhibition (IC50) was found to be 290 nM.

As to `Cc1cc(NC(=O)c2cccs2)ccc1OC1CCN(Cc2ccc(C#N)cc2)C1` (stereo unspecified), the 50% inhibitory concentration (IC50) was found to be 850 nM.

Regarding `CC(=O)N(C)c1ccc(C(=O)Nc2cccc(-c3cccc(-c4nc5c(C)cccc5[nH]4)c3)c2)cc1`, the half-maximal inhibitory concentration (IC50) is 620 nM.

`Cc1c(Cl)cccc1S(=O)(=O)Nc1ccc(CCN2CCC(N)CC2)cc1` yielded a half-inhibitory concentration (IC50) of 1460 nM. Compared with the last molecule, the IC50 is about 2.4-fold higher.

On to `CN1CCC(O)(c2ccc(Br)cc2)C(C(O)c2ccc(Br)cc2)C1` (stereo unspecified), for which the 50% inhibitory concentration (IC50) is 730 nM.

For `COc1ccc(C=CC(=O)Nc2ccc(N3CCCC3)cc2)cc1`, the 50% inhibitory concentration (IC50) came to 1280 nM. Against the preceding molecule, the IC50 is about 1.8-fold higher.

For the molecule `COC(=O)c1ccc(CC(C)NCC(O)c2cccc(C(F)(F)F)c2)c(Cl)c1` (stereo unspecified), the half-inhibitory concentration (IC50) was 850 nM.

Molecule `O=c1cc(NCCCNCc2cccc(C(F)(F)F)c2Cl)[nH]c2ccccc12` returned a concentration for half-maximal inhibition (IC50) of 800 nM.

Consider `COc1ccc(-c2ccc(NC(=O)c3ccc(Cl)cc3)cc2)cc1CN(C)CCN(C)C`, for which the IC50 was found to be 670 nM.

`CCCCN1CCN(Cc2cccc(NC(=O)c3ccc(Cl)c(Cl)c3)c2)CC1` returned a concentration for half-maximal inhibition (IC50) of 1160 nM.

`Cc1cc(N[C@@H](CC(C)C)C(=O)NCc2cccs2)nc(Nc2ccccc2)n1`: the IC50 was 1130 nM.

In turn, `COc1cc2nc(NCC3CCCO3)n3nc(-c4ccccc4)nc3c2cc1OC` (stereo unspecified) showed an IC50 of 210 nM. Against the preceding molecule, the IC50 is about 5.4-fold lower.

`c1cc(CN2CCCCC2)cc(-c2cccc(-c3nc4ccccc4[nH]3)c2)c1` registered an IC50 of 830 nM.

On to `COc1cccc(NC(=O)c2cc(C(=O)Nc3cccc(OC)c3)cc([N+](=O)[O-])c2)c1`, for which the half-maximal inhibitory concentration (IC50) turned out to be 660 nM.

Turning to `O=C(Nc1cccc(-c2cccc(F)c2)c1)C1CCN(Cc2ccc(O)cc2)CC1`, the concentration for half-maximal inhibition (IC50) was 1730 nM.

`Cc1nc(N)nc(N)c1OCCCCCCOc1ccccc1` had an IC50 of 240 nM. Compared with the last molecule, the IC50 is about 7.2-fold lower.

For the molecule `O=C(NCCc1ccccc1)[C@H](Cc1ccccc1)Nc1ccnc(NCC2CCCCC2)n1`, the half-inhibitory concentration (IC50) worked out at 1380 nM.

The molecule `O=C(Nc1ccc(Cn2ncc(N3CCCNCC3)c(Cl)c2=O)cc1)Nc1ccc(F)cc1[N+](=O)[O-]` had a half-inhibitory concentration (IC50) of 1100 nM. This IC50 and that of the molecule before are within 1.5-fold of each other.

With `Cc1cccc2[nH]c(-c3ccc(-c4cccc(CNCc5cnn(-c6ccccc6)n5)c4)s3)nc12`, the half-maximal inhibitory concentration (IC50) was determined as 550 nM. Against the preceding molecule, the IC50 is about 2-fold lower.

Take `Cc1cccc2[nH]c(-c3ccc(-c4cccc(CN5CCCC(N)C5)c4)s3)nc12` (stereo unspecified): the IC50 was determined as 540 nM.

The molecule `Cc1cccc2[nH]c(-c3ccc(-c4ccc(NC(=O)NCc5ccccc5)cc4)s3)nc12` returned a half-maximal inhibitory concentration (IC50) of 770 nM. The IC50 values of the last two molecules are within 1.5-fold of each other.

For `CCCCCCN1CCC(NCc2ccc(OCCN3CCCC3)cc2)CC1`, the IC50 turned out to be 720 nM.

Consider `c1ccn2c(Sc3ncnc4sccc34)ncc2c1`, for which the IC50 is 660 nM.

With `CC(C)N1CCN(C(=O)c2ccc(CNCCCN3CCN(c4cccc(Cl)c4Cl)CC3)o2)CC1`, the concentration for half-maximal inhibition (IC50) came out at 740 nM.

For `COc1ccc(OC)c(-c2ccc(O)c(CNCC(C)c3ccccc3)c2)c1` (stereo unspecified), the IC50 amounted to 930 nM.

For the molecule `COc1ccc(C2N=C(N)N=C(N)N2OCc2ccccc2)cc1OC` (stereo unspecified), the half-maximal inhibitory concentration (IC50) was 130 nM.

`Cc1ccc(O)c(CN2CCCC(COC(c3ccc(F)cc3)c3ccc(F)cc3)C2)c1` (stereo unspecified) showed a 50% inhibitory concentration (IC50) of 710 nM.

In turn, `Cc1ccc(N2CCN(CCCCNC(=O)c3ccc(NC(=O)c4ccc(Cl)cc4)cc3)CC2)c(C)c1` registered a concentration for half-maximal inhibition (IC50) of 760 nM.

Molecule `COC(=O)CCn1c(C2CCN(CC3CCC(NC(=O)/C=C/c4ccc(Cl)c(Cl)c4)CC3)CC2)nc2ccccc21` (stereo unspecified) registered a concentration for half-maximal inhibition (IC50) of 950 nM.

Consider `CCN(CCNS(C)(=O)=O)c1ccc(N)c(C)c1`, for which the IC50 stood at 880 nM.

`COc1c(C2CCN(CCCCNC(=O)c3ccc(-c4ccc(C(F)(F)F)cc4)c(C(=O)OC(C)C)c3)CC2)ccc2c1CCCC2`: the 50% inhibitory concentration (IC50) worked out at 860 nM.

Regarding `CCOCCCn1c(=N)c(C(=O)NCc2ccc(F)cc2)cc2c(=O)n3cccc(C)c3nc21`, the IC50 stood at 530 nM.

The molecule `O=C(NCCCN1CCC(N2CCCCC2)CC1)C1=Cc2cc(Br)ccc2OC1` showed an IC50 of 850 nM.

As for `Cn1cc(CCNc2ccnc(NCCc3coc4ccccc34)n2)c2ccccc21`, the half-inhibitory concentration (IC50) was found to be 1060 nM.

`COc1ccc(CN2CCCN(Cc3cccc(NC(=O)c4ccc5ccccc5c4)c3)CC2)cc1` gave a half-maximal inhibitory concentration (IC50) of 1000 nM.

In turn, `O=C(/C=C/c1ccc(Cl)c(Cl)c1)N1CCC(CN2CCC(Cc3c[nH]c4ccccc34)CC2)CC1` had an IC50 of 670 nM.

`CS(=O)(=O)Nc1ccc2[nH]cc(C3CCN(CC4CCC(NC(=O)/C=C/c5ccc(Cl)c(Cl)c5)CC4)CC3)c2n1` (stereo unspecified) registered an IC50 of 780 nM. This IC50 and that of the molecule before are within 1.5-fold of each other.

In turn, `Cc1cc(-c2cccc3c(NC(=O)N4CCc5cc6nccc(N7CCN8CCC[C@H]8C7)c6cc54)cccc23)cc(C)n1` registered an IC50 of 490 nM.

Consider `O=C(NC1CCC(CN2CCC(c3c[nH]c4ccccc34)CC2)CC1)c1csc(-c2cccc(Cl)c2Cl)n1` (stereo unspecified), for which the concentration for half-maximal inhibition (IC50) was found to be 1730 nM.

For the molecule `COc1cccc(-c2ccc3c(-c4ccc(F)cc4)cnc(N)c3c2)c1`, the IC50 was found to be 810 nM.

Regarding `CCOC(=O)CCc1cc(F)c(F)c(OC[C@H](O)CNC(C)(C)C(O)c2ccc3ccccc3c2)c1` (stereo partly specified), the half-maximal inhibitory concentration (IC50) stood at 860 nM.

In turn, `Cc1cc(C)c2nc(N3CCC(C(=O)NCCCN4CCC(N5CCCCC5)CC4)CC3)sc2c1` had an IC50 of 840 nM.

Molecule `Cc1cccc2[nH]c(-c3ccc(-c4cccc(C(=O)NCCN5CCCC5)c4)s3)nc12` showed an IC50 of 1140 nM.

Consider `Cc1cccc2[nH]c(-c3ccc(-c4cccc(CN5CCCC5CN)c4)cc3)nc12` (stereo unspecified), for which the half-inhibitory concentration (IC50) came to 910 nM. This IC50 and that of the molecule before are within 1.5-fold of each other.

Take `O=C(Cc1cccc(OCCCN(Cc2cccc(C(F)(F)F)c2Cl)CC(c2ccccc2)c2ccccc2)c1)NCc1ccco1`: the IC50 worked out at 940 nM.

Molecule `CN1CCC(C(=O)N(Cc2ccc(-c3ccc(CNCCc4ccc(S(C)(=O)=O)cc4)cn3)cc2)C2Cc3ccccc3C2)CC1` came in with an IC50 of 660 nM.

With `CC(C)C[C@H](NC(=O)c1cc(-c2ccc(C(C)(C)C)cc2)no1)C(=O)O` (tested in a mixture with another compound), the concentration for half-maximal inhibition (IC50) worked out at 190 nM.

As for `COc1ccc(NC(=O)[C@H](CC(C)C)Nc2ccnc(NCCc3ccc(F)cc3)n2)cc1`, the IC50 is 1600 nM.

`N#Cc1c(F)cc(N2CCC(NCC[C@H](N)Cc3ccc(F)c(F)c3)CC2)cc1F` had a half-maximal inhibitory concentration (IC50) of 860 nM.

`COc1ccc2c(c1)CC(NCc1ccc(-c3ccc4nc[nH]c4c3)cc1)C2` (stereo unspecified) yielded an IC50 of 880 nM.

As to `CCOC(=O)c1ccc(NC(=O)Nc2ccc(-c3ccc(-c4nc5c(C)cccc5[nH]4)s3)cc2)cc1`, the IC50 turned out to be 200 nM. This IC50 is about 4.4-fold lower than that of the molecule before.

Molecule `Cc1cc(N[C@@H](CC(C)C)C(=O)NC2CCCC2)nc(NCC2CCCCC2)n1` yielded an IC50 of 860 nM.

Regarding `Cc1cc(NCCCCCCNc2cc(C)nc3c(C)cccc23)c2cccc(C)c2n1`, the IC50 worked out at 410 nM.

As to `Cc1cccc2[nH]c(-c3cccc(-c4cccc(C(=O)NCCN5CCCC5)c4)c3)nc12`, the half-inhibitory concentration (IC50) is 830 nM.

Consider `COc1ccc2nccc([C@@H](O)CN3CC[C@H](NCc4cnc5c(c4)NC(=O)CS5)[C@H](F)C3)c2c1`, for which the IC50 was 770 nM.

In the case of `C=CCOC(=O)N1CCC(CNCc2ccc(-c3ccc(-c4nc5ccccc5[nH]4)s3)cc2)C1` (stereo unspecified), the half-inhibitory concentration (IC50) was determined as 230 nM.

In turn, `CCOc1cc(Br)c(C(C)NC(=O)c2cccc(OC)c2)cc1OCC` (stereo unspecified) yielded a 50% inhibitory concentration (IC50) of 170 nM.

Take `COc1ccc(-c2c3c(=O)n(C)c(=O)n(C)c3c3nnc4ccccc4n23)cc1`: the IC50 was determined as 990 nM. Against the preceding molecule, the IC50 is about 5.8-fold higher.
